Data reported in patent US9034820B2, “Method and composition for modulating erythropoiesis” (priority 2011, dated 2015).
Entries after “also recorded” stand apart in the source; their conditions may differ.

Columns and labels:
[1] = system: human CD133+ hematopoietic stem cells (hHSCs); assay: flow cytometry of CD71 and GlyA protein on cultured hHSCs; type: cell-based; details: end of stage II induction
Experimental: (§1) CD133^+ stem cells were isolated from human umbilical cord blood by magnetic microbead selection using Direct […] progenitor isolation beads (Miltenyi Biotech, Bergisch Gladbach, Germany) and MACS LS-columns (Miltenyi Biotech), and were subsequently cultured. In stage I, 10^5 CD133^+ cells were cultured in 10 ml of EDM (10^4 cells/ml), containing human stem cell factor (SCF, 50 ng/ml), human EPO (6 IU/ml), human interleukin (IL)-3 (10 ng/ml), human vascular endothelial growth factor (VEGF, 10 ng/ml), and human insulin-like growth factor (IGF)-II (250 ng/ml) for 6 days. In stage II, cells were cultured in 10 ml of EDM (3×10^4 cells/ml) in the presence of SCF (50 ng/ml) and EPO (6 IU/ml) for 4 days. In stage III, cells were cultured in 10 ml of EDM (5×10^4 cells/ml) in the presence of SCF (50 ng/ml) and EPO (2 IU/ml) for 6 days. Cultured cells respectively underwent 30-, 20-, and 10-fold expansions in stages I, II, and III. All cell cultures were incubated at 37° C. in 5% CO2 under humidified conditions. LPA (Sigma) was prepared in chloroform and methanol (1:9) and stored at −20° C. LPA was added to serum-free medium with 0.005% fatty acid-free BSA as a carrier.
(§2) Ki16425 (Cayman Chemical, Ann Arbor, Mich., USA) powder was diluted in dimethyl sulfoxide (DMSO) at a concentration of 40 mM as the stock. At the ends of stages I and II, HSCs were pretreated with Ki16425 in serum-free medium for 1 h. Then, cells were cultured in media of stages II and III containing Ki16425 at a final concentration of 20 μM. Quercetin (Sigma) was dissolved in DMSO at 100 mM as the stock and stored at −20° C. Quercetin was diluted into each final concentration by culture media for treatment.
HSC cultures were collected, washed, and stained either with anti-GlyA-PE and anti-CD71-PE/Cy5 for 30 minutes (BD Biosciences Pharmingen, San Diego, Calif., USA). Stained cells were washed and resuspended in PBS. Non-stained and single-stained samples were prepared for fluorescent compensation. […]

[2] = system: human CD133+ hematopoietic stem cells (hHSCs); assay: expansion and differentiation of hHSC-derived erythroid cells in culture; type: cell-based; details: LPA present, EPO-free, data not shown
Experimental: as §1
Ki16425 (Cayman Chemical, Ann Arbor, Mich., USA) powder was diluted in dimethyl sulfoxide (DMSO) at a concentration of 40 mM as the stock. […]

[3] = system: human CD133+ hematopoietic stem cells (hHSCs); assay: real-time PCR of erythroid marker mRNA in cultured hHSCs during erythropoietic differentiation; type: cell-based
Experimental: as §1, §2
Total RNA extraction was isolated using Trizol Reagent (Invitrogen, Carlsbad, Calif., USA). Complementary (c)DNA was synthesized from 1 μg total RNA with a reverse-transcription polymerase chain reaction (RT-PCR). Primer sequences were:
A real-time PCR with the mixture reagent SYBR®-Green I (Thermo Scientific, San Diego, Calif., USA) was carried out on an iCycler iQ™ real-time detection system (Bio-Rad, Hercules, Calif., USA). The specificity of the primers was confirmed from a single peak of the melting curve. Each target mRNA level was evaluated from the real-time threshold cycle and compared to the GAPDH amount as an internal control.

zLPA3 = assay: o-dianisidine blood cell staining of zLPA3 morpholino-injected zebrafish embryos; type: in vivo, zebrafish (Danio rerio); details: for percentages of erythrocyte-defective embryos compared to control embryos: 48 hpf and 60 hpf; for effect of LPA3 knockdown on erythrocyte formation (o-dianisidine staining; normal, moderate, severe): injected at one-cell stage, 0, 2.5 and 5 ng, 48 hpf
Experimental: Wild-type zebrafish (Danio rerio) obtained from the Zebrafish Information Research Center (Eugene, Oreg., USA) were inbred at 27-28° C. Embryos were collected from natural spawning, washed, and incubated in 0.3× Danieau's buffer at 28° C. until being used. Each stage of fish embryos was determined from their morphology. Embryos at 12 hour post-fertilization (hpf) were treated with 0.2 mM 1-phenyl-2-thiourea (PTU) (Sigma, St. Louis, Mo., USA) in 0.3× Danieau's buffer to suppress melanization. Dechorionation of embryos was carried out with 0.01 g/ml protease (Sigma).
Glass capillary tubes were pulled by a horizontal puller (P-97, Sutter Instrument, Navato, Calif., USA). Two zLPA3 translation-blocking (t)MOs (Gene Tools, Philomath, Oreg., USA) were utilized as follows:
tMO1: 5′-[…]-3′ (−27 to −3) (SEQ ID No. 1); and
tMO2: 5′-[…]-3′ (+1 to +23) (SEQ ID No. 2).
The MOs were prepared at 1 mM in sterile H2O as a stock solution, and further diluted into desired working concentrations in 1× Danieau's buffer with 0.5% phenol red. Fish embryos were fixed on 1% injection agar plates, and 2.3 nl of solution was injected into the yolk sac and blastodisc interface with a nanoliter injector (World Precision Instruments, Sarasota, Fla., USA). The injected embryos were incubated in 0.3× Danieau's buffer at 28.5° C. for further experiments.
Embryos from designated stages were incubated in freshly prepared o-dianisidine solution (40% ethanol, 0.01 M sodium acetate, 0.65% H2O2, and 0.6 mg/ml o-dianisidine [Sigma]) for 15 minutes in the dark.

[4] = stage II, 24-hour LPA 18:1 (1~10 μM), plasma-free medium, concentration-dependent

## CCCCCCCC/C=C\CCCCCCCC(=O)OCC(O)COP(=O)(O)O (stereo not drawn) [LPA, (2-hydroxy-3-phosphonooxypropyl) (Z)-octadec-9-enoate]
[1]; 5 and 10 μM LPA, 4 days
  protein expression level of CD71: higher levels
  protein expression level of GlyA: not GlyA
[2]
  differentiation of erythroid cells in the absence of EPO: severely decreased
[3]; [4]
  mRNA level of CD71: increased; also recorded: elevated
  mRNA level of GATA-1: elevated
  mRNA level of GlyA: elevated

## O=c1c(O)c(-c2ccc(O)c(O)c2)oc2cc(O)cc(O)c12 [quercetin]
[1]; quercetin (20 μM)
  LPA-induced protein expression of CD71: decreased; also recorded: suppressed
[3]; quercetin 5, 20 and 50 μM
  increase in CD71 mRNA under LPA induction: suppressed; also recorded: inhibited

## tMO1: zLPA3 translation-blocking morpholino 5′-CACTGTCCTAGTGGGTTTTGTCCAA-3′ (SEQ ID No. 1) (all phosphorodiamidate morpholino (PMO))
zLPA3
  percentages of erythrocyte-defective embryos compared to control embryos: significantly higher
  effect of LPA3 knockdown on erythrocyte formation (o-dianisidine staining; normal, moderate, severe): dose-dependent effect

## tMO2: zLPA3 translation-blocking morpholino 5′-ATGGCCAGGCACAACATCTGCTA-3′ (SEQ ID No. 2) (all phosphorodiamidate morpholino (PMO))
zLPA3
  percentages of erythrocyte-defective embryos compared to control embryos: significantly higher
  effect of LPA3 knockdown on erythrocyte formation (o-dianisidine staining; normal, moderate, severe): dose-dependent effect
